Test results taken from US20050123602A1, “Rifalazil formulations” (priority 2003, published 2005).

Test: Pharmacokinetics after single peroral administration of 5 mg rifalazil, fed and fasted
Type: in vivo, beagle dogs
Details: dogs, liquid-filled vs microgranulated
Protocol: Pharmacokinetic parameters were determined following a single peroral administration of 5 mg of rifalazil in healthy male beagle dogs. The rifalazil was formulated either as a liquid-filled capsule of Example 3 or as a powder-filled capsule containing microgranulated rifalazil as described in U.S. Pat. No. 5,547,683.
Both formulations were administered under fed and fasted conditions. All animals were fasted overnight prior to dosing. Animals designated as “fed” were administered a blended combination of dog chow and water in a 1:3 ratio (e.g. 250 g chow and 750 g water) via oral gavage at a dose volume of 20 mL/kg within approximately 30 minutes prior to dosing and food was provided Ad-libitum after approximately 4 hours following dosing. Animals in “fasted” groups were not fed prior to dosing and food was withheld until after approximately 4 hours after dosing. […]
Pharmacokinetic endpoints and parameters were calculated by noncompartmental analysis (NCA) using WinNonlin®.
The pharmacokinetic parameters Tmax, Cmax, AUCt, AUC∞, T1/2 (elimination), and F (bioavailability) were calculated as well as the coefficient of variation (CV) in each. […]

- effect of changes in the formulation upon elimination half-life (T1/2): no effect
SMILES: CO[C@H]1/C=C/O[C@@]2(C)Oc3c(C)c(O)c4c(=O)c(c5oc6cc(N7CCN(CC(C)C)CC7)cc(O)c6nc-5c4c3C2=O)NC(=O)/C(C)=C\C=C\[C@H](C)[C@H](O)[C@@H](C)[C@@H](O)[C@@H](C)[C@H](OC(C)=O)[C@@H]1C [rifalazil, Rifalazil]
